Data set [1] has as its system carrageenin-induced edema of the hind paw of the rat. Description: Carrageenin edema of the back paw of the rat. Format: in vivo. To be noted: per os, 60 minutes before edema, swelling at 3 hours. As for the experimental part: (§1) Compound A and known compound B were tested to determine their actue antiexsudative effect on the kaolin-induced edema and the carrageenin-induced edema of the hind paw of the rat and their acute toxicity after oral administration in rats.
b. Carrageenin edema of the back paw of the rat:
(§2) The provocation of the carrageenin edema was effected according to the method of Winter et al [Proc. Soc. exp. Biol. Med. 111, 544 (1962)] by subplantar injection of 0.05 ml of a 1% solution of carrageenin in an aqueous 0.85% solution of sodium chloride. The test compound was administered 60 minutes before the provocation of the edema.
(§3) For the calculation of the reductive effect on the edema, the size of the swelling was measured 3 hours after the provocation of the edema. All the other details were the same as described above in the case of the kaolin edema.
Background: In the carrageenan paw model, swelling and tenderness develop within hours.

The nature of data set [2]: Acute toxicity in the rat, oral. Type of data set: in vivo. The settings on record: in vivo, po, per os, male and female FW 49-rats, within 14 days. As for the experimental part: The test compound was administered in the form of a trituration in tylose.
The calculation of the LD50 values was effected, to the extent possible, according to the method of Litchfield and Wilcoxon, based on the percentage of animals which died within 14 days after administration of the different doses.

Data set [3] has as its system kaolin-induced edema of the hind paw of the rat. Put plainly: Kaolin edema of the hind paw of the rat. The settings on record: per os, 30 minutes before edema, 35% reduction of swelling at 5 hours. Type of data set: in vivo. The procedure: as §1
a. Kaolin edema of the hind paw of the rat:
(§4) The kaolin edema was induced according to the method of Hillebrecht [Arzneimittel-Forsch. 4, 607 (1954] by subplantar injection of 0.05 ml of a 10% suspension of kaolin in an aqueous 0.85% sodium chloride solution. Measurement of the thickness of the paws was effected using the technique of Doepfner and Cerletti [Int. Arch. Allergy Immunol. 12, 89 (1958)]. The test compound was administered perorally by means of an esophageal tube to male FW 49-rats having an average body weight of 120 to 150 gm 30 minutes before inducing the edema. 5 hours after the provocation of the edema, the average size of the swelling in the rats treated with the test compound was compared with the average size of the swelling in the control animals treated by a dummy procedure. By graphical extrapolation, the dose leading to a 35% reduction of the swelling (ED35) was calculated from the percentage reduction in the size of the swelling caused by the administration of different doses.

The subject of data set [4] is kaolin- and carrageenin-induced edemas. Description: Kaolin and carrageenin edema combined: average ED35 and therapeutic ratio LD50/ED35. Type of data set: in vivo. The procedure: as §4, §2, §3
The therapeutic index (a measure of the therapeutic usefulness) was calculated as the quotient of the oral LD50 value and the ED35 value derived from the tests to determine the antiexsudative activity against kaolin- and carrageenininduced edemas.

Data set [5] deals with adjuvant arthritis in the rat. Put plainly: Adjuvant arthritis in the rat. Format: in vivo. The settings on record: for ED50: po, 504 h, per os, once a day for 20 days, paw volume on 21st day, read-out: Adjuvant arthritis in the rat ED50 per os (average value of primary and secondary reaction). As for the experimental part:
d. Adjuvant arthritis in the rat: The adjuvant arthritis tests in rats were carried out according to the method of Rosenthale and Nagra [Proc. Soc. exp. Biol. 125, 149 (1967)]. […] The test compound was administered once a day, starting with the day of the M. butyricum-injection, for a period of 20 days by means of an esophageal tube. […] An ED50 was determined graphically from the reduction of the swelling caused by the administration of different doses.

In data set [6] the test system is thrombocyte aggregation in the platelet-rich plasma of healthy human donors. Description: Born test; collagen aggregation. Format: cell-based. The settings on record: for 50% diminution of aggregation: times lower concentration than compound N: vs compound N (acetylsalicylic acid); for inhibition at 0.1 µM: 10^-^7 mol/liter. The procedure:
b. […] The rate of decline of the optical density of platelet suspensions was measured and recorded photometrically after the addition of commercial collagen. From the angle of inclination of the density curve, the rate of aggregation was estimated. The optical density was taken at the point on the curve where most light was transmitted. The amount of collagen was chosen such that an irreversible control curve was obtained. The results were expressed in terms of the optical density and represent the percentage change in light transmission (= % diminution of the aggregation) caused by the test compound compared with the untreated control.

Data set [7] concerns platelet stickiness in human citrate blood. Description: Morris test (platelet stickiness, retention on glass beads). Format: cell-based. The procedure: The principle of the Morris test is described in "Stoffwechsel- and Membranpermeabilitat von Erythrozyten und Thrombozyten, I. Int.
1 ml of human citrate blood was pipetted into each of a number of small test tubes, the test compound was added in the desired concentrations, and the tubes were incubated at 37° C for 10 minutes. 2 gm each of glass beads (about 100 mesh) were added to half of the tubes. The tubes, stoppered by means of a plastic plug, were attached to a vertical wheel and rotated for 45 seconds end-over-end. The same tubes were then left to stand at ambient temperature for a further hour, after which time a sedimentation of erythrocytes and glass beads had taken place. 0.01 ml of the supernatant plasma was removed and diluted with 1:800 celloscope solution. The platelet count was read in a celloscope. The percentage of the thrombocytes retained in the sediment (adhering to the glass beads or aggregating) was calculated from the difference of the thrombocyte counts with and without glass contact.
The results were expressed in terms of the percentage reduction in the stickiness compared with the control (without addition of test compound).

[8] abbreviates: Homo sapiens, read-out: Born test (% diminution of the aggregation).
Setting [9] is: Homo sapiens, 10^-^4 mol/liter, read-out: Born test (% diminution of the aggregation).
[10] abbreviates: Homo sapiens, 10^-^5 mol/liter, read-out: Born test (% diminution of the aggregation).
[11] abbreviates: Homo sapiens, 10^-^6 mol/liter, read-out: Born test (% diminution of the aggregation).

Counter-ions that a name gives are not always drawn. Like-named read-outs stand apart in the source and are kept apart here.

As a reminder, the LD50 is the dose at which mortality reaches 50%. The low end stands for a more toxic substance, the high end for a less toxic substance. `COc1ccc2c(c1)c(CC(=O)O)c(C)n2C(=O)c1ccc(Cl)cc1` [B, indomethacin, reference compound]: the ED35 in data set [1] is 2.9 mg/kg; in data set [3] it was 2.7 mg/kg; in data set [4] (Rattus norvegicus, read-out: Average value ED35), 2.8 mg/kg. The same compound returned an LD50 at 336 h in data set [2] of 25.7 mg/kg. For the same compound, in data set [4] (oral LD50 / average ED35, rat), the “Therapeutic ratio: ratio of toxic and anti-exsudative activity LD50 / ED35” value is recorded as 9.2.

The term ED50 denotes the dose at which the effect has come halfway, by size or by number of responders. In the case of `CN1C(C(=O)Nc2ccccn2)=C(O)c2ccc3ccccc3c2S1(=O)=O` [C, 4-Hydroxy-2-methyl-N-(2-pyridyl)-2H-naphtho[2,1-e]-1,2-thiazine-3-carboxamide-1,1-dioxide], in data set [5], the “activity against adjuvant arthritis (in words)” value is on record as “surprisingly strong activity” and the ED50 is around 4 mg/kg. Moreover, the “activity against adjuvant arthritis compared with phenylbutazone (D) (in words)” value in data set [5] (vs phenylbutazone (D)) is “far superior”.

Take `CCCCC1C(=O)N(c2ccccc2)N(c2ccccc2)C1=O` [D, phenylbutazone, reference compound]: the ED50 in data set [5] is around 40 mg/kg.

Turning to `CN1C(C(=O)Nc2nccs2)=C(O)c2ccccc2S1(=O)=O` [E, 4-hydroxy-2-methyl-N-(2-thiazolyl)-2H-1,2-benzothiazine-3-carboxamide-1,1-dioxide, reference compound], in data set [6] (setting [8]), the inhibition at 1 µM was 33%, the inhibition at 10 µM is 91% and the inhibition at 100 µM was 92%. This compound also gave an LD50 at 336 h in data set [2] of 136 mg/kg. For the same compound, the inhibition at 100 µM in data set [7] (Platelet, 10 min, 10^-^4 mol/liter, human citrate blood, read-out: Morris test (percentage reduction in the stickiness)) came out at 3%. Moreover, in data set [7] (vs compound A), the “inhibition of the stickiness in the Morris test in comparison with compound A (in words)” value is reported as “practically ineffective”.

Turning to `CN1C(C(=O)Nc2cccc(Cl)c2)=C(O)c2ccc3ccccc3c2S1(=O)=O` [F, N-(3-Chloro-phenyl)-4-hydroxy-2-methyl-2H-naphtho[2,1-e]-1,2-thiazine-3-carboxamide-1,1-dioxide], the inhibition at 100 µM in data set [6] (setting [9]) was 96%. Besides, the inhibition at 10 µM in data set [6] (setting [10]) worked out at 81%. Besides, the inhibition at 1 µM in data set [6] (setting [11]) was 35%. Further, the “50% diminution of aggregation: times lower concentration than compound N” value in data set [6] is “at least 20 times lower”.

As for `Cc1cccc(NC(=O)C2=C(O)c3ccc4ccccc4c3S(=O)(=O)N2C)c1` [G, 4-Hydroxy-2-methyl-N-(3-tolyl)-2H-naphtho[2,1-e]-1,2-thiazine-3-carboxamide-1,1-dioxide], the inhibition at 100 µM in data set [6] (setting [9]) was 97%. Further, the inhibition at 10 µM in data set [6] (setting [10]) worked out at 78%. The inhibition at 1 µM in data set [6] (setting [11]) stood at 65%. The “50% diminution of aggregation: times lower concentration than compound N” value in data set [6] is listed as “at least 20 times lower”.

Consider `Cc1ccnc(NC(=O)C2=C(O)c3ccc4ccccc4c3S(=O)(=O)N2C)c1` [H, Sodium salt of 4-hydroxy-2-methyl-N-(4-methyl-2-pyridyl)-2H-naphtho[2,1-e]-1,2-thiazine-3-carboxamide-1,1-dioxide], for which the inhibition at 100 µM in data set [6] (setting [9]) was determined as 95%. Further, the inhibition at 10 µM in data set [6] (setting [10]) came to 91%. In addition, the inhibition at 1 µM in data set [6] (setting [11]) was 82%. In addition, the “50% diminution of aggregation: times lower concentration than compound N” value in data set [6] is on record as “at least 100 times lower”.

Regarding `CN1C(C(=O)Nc2cncc(Cl)n2)=C(O)c2ccc3ccccc3c2S1(=O)=O` [I, N-(6-Chloro-2-pyrazinyl)-4-hydroxy-2-methyl-2H-naphtho[2,1-e]-1,2-thiazine-3-carboxamide-1,1-dioxide], the inhibition at 10 µM in data set [6] (setting [10]) worked out at 91%. Also, the inhibition at 1 µM in data set [6] (setting [11]) turned out to be 91%. The inhibition at 0.1 µM in data set [6] (setting [8]) worked out at 22%. In addition, in data set [6], the “50% diminution of aggregation: times lower concentration than compound N” value is listed as “at least 100 times lower”.

On to `Cc1csc(NC(=O)C2=C(O)c3ccc4ccccc4c3S(=O)(=O)N2C)n1` [J, 4-Hydroxy-2-methyl-N-(4-methyl-2-thiazolyl)-2H-naphtho[2,1-e]-1,2-thiazine-3-carboxamide-1,1-dioxide], for which the inhibition at 100 µM in data set [6] (setting [9]) amounted to 92%. In addition, the inhibition at 10 µM in data set [6] (setting [10]) is 89%. Besides, the inhibition at 1 µM in data set [6] (setting [11]) came to 88%. Besides, the inhibition at 0.1 µM in data set [6] (setting [8]) came to 4%. In addition, in data set [6], the “50% diminution of aggregation: times lower concentration than compound N” value is on record as “at least 100 times lower”.

`Cc1cnc(NC(=O)C2=C(O)c3ccc4ccccc4c3S(=O)(=O)N2C)s1` [K, 4-Hydroxy-2-methyl-N-(5-methyl-2-thiazolyl)-2H-naphtho[2,1-e]-1,2-thiazine-3-carboxamide-1,1-dioxide]: the inhibition at 100 µM in data set [6] (setting [9]) came to 89%. Besides, the inhibition at 10 µM in data set [6] (setting [10]) was determined as 97%. The inhibition at 1 µM in data set [6] (setting [11]) is 66%. The “50% diminution of aggregation: times lower concentration than compound N” value in data set [6] was “at least 20 times lower”.

For `Cc1nc(NC(=O)C2=C(O)c3ccc4ccccc4c3S(=O)(=O)N2C)sc1C` [L, N-(4,5-Dimethyl-2-thiazolyl)-4-hydroxy-2-methyl-2H-naphtho[2,1-e]-1,2-thiazine-3-carboxamide-1,1-dioxide], in data set [6] (setting [9]), the inhibition at 100 µM came out at 91%. Also, the inhibition at 10 µM in data set [6] (setting [10]) is 95%. Besides, the inhibition at 1 µM in data set [6] (setting [11]) turned out to be 88%. The inhibition at 0.1 µM in data set [6] (setting [8]) came to 15%. For the same compound, the “50% diminution of aggregation: times lower concentration than compound N” value in data set [6] is recorded as “at least 100 times lower”.

In the case of `CCc1nc(NC(=O)C2=C(O)c3ccc4ccccc4c3S(=O)(=O)N2C)sc1C` [M, N-(4-Ethyl-5-methyl-2-thiazolyl)-4-hydroxy-2-methyl-2H-naphtho[2,1-e]-1,2-thiazine-3-carboxamide-1,1-dioxide], the inhibition at 100 µM in data set [6] (setting [9]) is 94%. Further, in data set [6] (setting [10]), the inhibition at 10 µM was 91%. The inhibition at 1 µM in data set [6] (setting [11]) amounted to 79%. Further, the inhibition at 0.1 µM in data set [6] (setting [8]) was found to be 24%. Moreover, the “50% diminution of aggregation: times lower concentration than compound N” value in data set [6] is “at least 100 times lower”.

With `CC(=O)Oc1ccccc1C(=O)O` [N, acetylsalicylic acid, reference compound], in data set [6] (setting [8]), the inhibition at 10 µM was determined as 13% and the inhibition at 30 µM was determined as 45%. For the same compound, the IC50 in data set [6] (Homo sapiens, read-out: concentration causing a 50% diminution of aggregation) is around 40 µM.

Values taken from patent US3992535A, “4-Hydroxy-2H-naphtho[2,1-e]-1,2-thiazine-3-carboxamide-1,1-dioxides and salts thereof” (priority 1974, dated 1976).
